Source: patent US9464972B2, “Apparatus and procedure for in vitro measurement of a substance, nicotine, released from a smokeless tobacco product” (priority 2011, dated 2016)
Where two headings read alike, the source gives them in different places.

Settings: for nicotine release (accumulated, of total nicotine): artificial saliva Table 3, pH 5.8, 37° C., flow 4 ml/min
Excerpt: The nicotine extraction and collection procedure include the following steps:
1. Add fluid (140) to the reservoir (120). Fluid (140) is artificial saliva where the extraction is nicotine from a smokeless tobacco product;
2. Set the bath (200) and the heating or cooling element (220) temperature control (230) to the temperature desired as established from the in vivo environment. Where the fluid (140) is artificial saliva and, for the measurement of nicotine in a smokeless tobacco product, set the temperature to 37° C.;
3. Start the fluid pump (180) and set the pump to the desired pump rate.
4. When the temperature and flow rate are stabilized, add the product sample (330) to extraction bottle interior (304) onto the screen mesh (325). Where the product sample is for a smokeless tobacco product sample (330) the product sample (330) is a smokeless tobacco sachet; the product sample (330) is placed onto the screen mesh (325) in alignment with the supply tube (310);
5. The fluid (140) from the supply tube (310) is flowed or dripped onto the product sample (330) producing an extract (1000) from the combination of the fluid (140) and the sample (330) which is drained from the extraction bottle (300) by a collection tube (335) and is then deposited into at least one collection bottle (400) at intervals determined by experimental design. Where the product sample (330) is a smokeless tobacco product sample (330) 1−n collection bottles (400) will used with bottles (400) changed at intervals of 1-5 min based on experimental design;
6. Extract the residual element from the product sample (330) by placing the product sample (330) in solvent effective for the type of product sample (330); where the product sample (330) is a smokeless tobacco product, the solvent in the preferred embodiment is 20 to 50 ml ethanol:5% NaOH mixture (9:1), and extract with ultrasound for 30 min.
7. Measure the target element in the extract (1000) by use of a measuring instrument suitable for the attributes of the target element in the extract (1000); for the preferred embodiment when the target element is nicotine from a smokeless tobacco product the measuring instrument is high-performance liquid chromatography (HPLC); the extract (1000) of nicotine in artificial saliva and the residual nicotine from ethanol NaOH mixture are determined using HPLC in the following conditions: • 1. Chromatograph column is a C18 reverse phase column • 2. Mobile phase is methanol and 20 mmol phosphate buffer (23:77, volume to volume) with 0.2% Triethylamine, pH=6.0 • 3. Flow rate is 1 ml/min • 4. Column temperature is 35° C.
Artificial saliva temperature was maintained at 37° C., pump flow rate 1 ml/min. Artificial saliva was made using the formula in Table 1, with a pH of 6.7. The artificial saliva collection intervals were at 1, 2, 3, 4, 5, 6, 7, 8, 9, 10, 12, 14, 16, 18, 20, 24, 28, 32 minutes after the extraction started.
Artificial saliva temperature was maintained at 37° C., pump flow rate 2 ml/min. Artificial saliva was made using the formula in Table 2, with a pH of 7.0. The artificial saliva collection intervals were at 1, 2, 3, 4, 5, 6, 7, 8, 9, 10, 12, 14, 16, 18, 20, 22, 24, 26, 28, 30 minutes after the extraction start.
Artificial saliva temperature was maintained at 37° C., pump flow rate 4 ml/min. Artificial saliva was made using the formula in Table 3, with a pH of 5.8. The artificial saliva collection intervals were at 2, 4, 6, 7, 8, 10, 12, 14, 16, 18, 20, 24, 28, and 32 minutes after the extraction start.

CN1CCCC1c1cccnc1 (centres unmarked) [nicotine]
nicotine collected (Example 1: 20 to 32 min extraction period, artificial saliva Table 1, pH 6.7, 37° C., flow 1 ml/min): very little
nicotine released from tobacco (accumulated, of total nicotine) (Example 1: after 20 min of extraction, artificial saliva Table 1, pH 6.7, 37° C., flow 1 ml/min): over 90%
average rate of nicotine release (Example 1: first 5 minutes, artificial saliva Table 1, pH 6.7, 37° C., flow 1 ml/min, smokeless tobacco sachet): approximately 10%
average rate of nicotine release (Example 1: from 6 min to 10 min, artificial saliva Table 1, pH 6.7, 37° C., flow 1 ml/min): approximately 4.3%
average rate of nicotine release (Example 1: from 11 min to 20 min, artificial saliva Table 1, pH 6.7, 37° C., flow 1 ml/min): approximately 1%
nicotine collected (Example 2: 20 to 30 min extraction period, artificial saliva Table 2, pH 7.0, 37° C., flow 2 ml/min): very little
nicotine released (of total nicotine) (Example 2: first 5 minutes, artificial saliva Table 2, pH 7.0, 37° C., flow 2 ml/min): 64%
nicotine released from tobacco (accumulated, of total nicotine) (Example 2: first 20 min of extraction, artificial saliva Table 2, pH 7.0, 37° C., flow 2 ml/min): over 95%
nicotine released (additional, of total nicotine) (Example 2: from 6 min to 10 min, artificial saliva Table 2, pH 7.0, 37° C., flow 2 ml/min): 20%
nicotine release (accumulated, of total nicotine) (Example 3: first 6 min): 82%
nicotine release (accumulated, of total nicotine) (Example 3: first 10 min): 92%
